Here are results for 6 molecules from DBAASP.

Molecules are shown by their SMILES. In brackets after ≈: the same amount, converted by molar mass.

Common to all, as to assay: ≥ marks a high value that may be exact or a test limit, other limits are often not marked, values filed in µg/mL are converted to µM
Test [1] deals with Enterococcus faecalis ATCC 4028.
Test [2] concerns Enterobacter cloacae ATCC 13047.
In test [3] the test system is Escherichia coli ATCC 25922.
Test [4] has as its system Candida glabrata ATCC 90030.
Test [5] deals with Staphylococcus epidermidis ATCC 12228.
Test [6] relates to Staphylococcus aureus ATCC 29213.
In test [7] the test system is Pseudomonas aeruginosa ATCC 27853.
In test [8] the test system is Candida albicans ATCC 90028.
The test system of test [9] is Candida krusei ATCC 6258.
Test [10] has as its system Sinorhizobium meliloti USDA 1002.
In test [11] the test system is Methylobacterium sp.
The test system of test [12] is Agrobacterium tumefaciens GV3101.
In test [13] the test system is Xanthomonas citri.
The test system of test [14] is Acinetobacter baumannii.
Test [15] concerns Pseudomonas aeruginosa PAO1.
Test [16] relates to Bacillus subtilis VKM B-886.
The test system of test [17] is Escherichia coli BL21(DE3).
For test [18], the system named is Bacillus megaterium VKM41.
In test [19] the test system is Staphylococcus aureus 209P.
Test [20] has as its system Escherichia coli C600.
Test [21] has as its system Micrococcus luteus VKM B-1314.
In test [22] the test system is Escherichia coli ML-35p.
Test [23] deals with Escherichia coli K12 MG1655.
Test [24] relates to Salmonella enterica subsp. enterica serovar Typhimurium ATCC 14028.
Test [25] deals with Staphylococcus epidermidis.
Test [26] concerns Escherichia coli UTI89.
Test [27] relates to Salmonella enterica subsp. enterica serovar Pullorum CVCC 3533.
Test [28] has as its system Candida albicans ATCC 90029.
For test [29], the system named is Salmonella enterica subsp. enterica serovar Pullorum.
Test [30] deals with Escherichia coli.
The test system of test [31] is Staphylococcus aureus.
Test [32] concerns Candida albicans ATCC 14053.
The subject of test [33] is Staphylococcus aureus ATCC 12600.
Test [34] concerns Micrococcus luteus ATCC 49732.
Test [35] has as its system Escherichia coli ATCC 11775.

As usually defined, the MIC is the lowest concentration that inhibits growth of the organism. Lower therefore signals greater potency. With `CC[C@H](C)[C@H](NC(=O)[C@H](CC(C)C)NC(=O)[C@H](CCCCN)NC(=O)[C@H](CCCCN)NC(=O)[C@@H](NC(=O)[C@H](CC(C)C)NC(=O)[C@H](CO)NC(=O)[C@@H]1CCCN1C(=O)[C@@H](NC(=O)[C@H](CC(C)C)NC(=O)[C@H](CO)NC(=O)[C@H](Cc1ccccc1)NC(=O)[C@@H](N)Cc1ccccc1)[C@@H](C)CC)C(C)C)C(=O)N[C@@H](CCCCN)C(=O)N[C@@H](C)C(=O)N[C@@H](Cc1ccccc1)C(=O)N[C@@H](CCCCN)C(N)=O` [FFSLIPSLVKKLIKAFK], the minimal inhibitory concentration (MIC) in test [1] came out at 4.7 µM (≈ 9.3 µg/mL); in [2], 18.8 µM (≈ 37.2 µg/mL); in test [3], 2.3 µM (≈ 4.55 µg/mL); in test [4], 9.4 µM (≈ 18.6 µg/mL); in [5], 2.3 µM (≈ 4.55 µg/mL); in test [6] it was 1.2 µM (≈ 2.37 µg/mL). For the same molecule, the MIC came out at 4.7 µM (≈ 9.3 µg/mL) in test [7], 9.4 µM (≈ 18.6 µg/mL) in test [8] and 9.4 µM (≈ 18.6 µg/mL) in test [9].

With `CC[C@H](C)[C@H](N)C(=O)N[C@@H](CCC(=O)O)C(=O)N[C@H](C(=O)N[C@@H](Cc1ccccc1)C(=O)N[C@@H](CC(C)C)C(=O)N[C@@H](CCCCN)C(=O)N[C@@H](CCC(N)=O)C(=O)N[C@@H](CC(C)C)C(=O)N[C@@H](CCCN=C(N)N)C(=O)N[C@@H](CO)C(=O)N[C@@H](C)C(=O)N[C@@H](C)C(=O)N[C@@H](CC(N)=O)C(=O)N[C@@H](CCCCN)C(=O)N[C@H](C(=O)N[C@H](C(=O)NCC(=O)N[C@@H](CC(C)C)C(=O)O)C(C)C)[C@@H](C)CC)[C@@H](C)O` [IETFLKQLRSAANKIVGL], the MIC in [10] was at least 64 µM; in test [11] it was at least 64 µM; in test [12], at least 64 µM; in test [13], at least 32 µM.

With `CC[C@H](C)[C@H](N)C(=O)N[C@@H](CCCCN)C(=O)N[C@@H](CC(N)=O)C(=O)N[C@@H](C)C(=O)N[C@@H](CCCCN)C(=O)N[C@H](C(=O)N[C@H]1CSSC[C@@H](C(=O)N[C@H](C(=O)N[C@@H](CO)C(=O)N[C@@H](Cc2cnc[nH]2)C(=O)N[C@@H](CCCCN)C(=O)O)C(C)C)NC(=O)[C@H](C(C)C)NC(=O)[C@H](C)NC(=O)[C@H](Cc2ccc(O)cc2)NC(=O)[C@H](C(C)C)NC1=O)C(C)C` [IKNAKVCVYAVCVSHK], the MIC in test [14] is at least 64 µM; in test [15], over 128 µM; in test [16], 16 µM (≈ 28.2 µg/mL); in test [17] it was at least 64 µM; in test [18], 16 µM (≈ 28.2 µg/mL); in test [6], over 128 µM. Besides, the MIC in test [19] was 16 µM (≈ 28.2 µg/mL); in test [20], at least 64 µM; in test [21] it was 16 µM (≈ 28.2 µg/mL); in test [22], at least 64 µM.

Regarding `CC[C@H](C)[C@H](NC(=O)[C@H](CCCN=C(N)N)NC(=O)[C@H](CCC(N)=O)NC(=O)[C@H](Cc1c[nH]c2ccccc12)NC(=O)[C@@H](NC(=O)[C@H](CCCCN)NC(=O)[C@@H](N)CCCCN)[C@@H](C)CC)C(=O)N[C@@H](CCCCN)C(=O)N[C@@H](CC(N)=O)C(=O)N[C@@H](Cc1ccccc1)C(=O)N[C@@H](Cc1ccccc1)C(=O)N[C@@H](CCC(N)=O)C(=O)N[C@@H](CCCCN)C(=O)N[C@@H](CC(C)C)C(=O)O` [KKIWQRIKNFFQKL], the MIC in test [23] was 7 µM (≈ 13.1 µg/mL); in test [24], 29 µM (≈ 54.4 µg/mL); in test [25] it was at least 50 µM; in test [26], 6.25 µM (≈ 11.7 µg/mL).

With `CC(C)C[C@H](NC(=O)[C@H](CCCCN)NC(=O)[C@H](Cc1cnc[nH]1)NC(=O)[C@H](CCCCN)NC(=O)[C@H](CC(C)C)NC(=O)[C@H](CC(C)C)NC(=O)[C@@H](N)CCCCN)C(=O)N[C@@H](CC(C)C)C(=O)N[C@H](C(=O)N[C@H](C(=O)N[C@@H](CC(C)C)C(=O)N[C@@H](C)C(=O)O)[C@@H](C)O)C(C)C` [KLLKHKLLVTLA], the MIC is 4.54 µM (≈ 6.25 µg/mL) in test [27]; at least 36.3 µM in test [28]; 4.54 µM (≈ 6.25 µg/mL) in [29]; 9.08 µM (≈ 12.5 µg/mL) in [3]; 18.2 µM (≈ 25 µg/mL) in test [30]; 18.2 µM (≈ 25 µg/mL) in [6]. In test [31], this molecule showed an MIC of 18.2 µM (≈ 25 µg/mL).

Take `C[C@H](NC(=O)[C@H](C)NC(=O)[C@@H](NC(=O)CNC(=O)[C@@H]1CCCN1)[C@@H](C)O)C(=O)N[C@@H](Cc1ccccc1)C(=O)N[C@@H](CCCCN)C(=O)O` [PGTAAFK]: the MIC in [32] is at least 36 µM; in test [33], at least 967 µM; in test [34], at least 36 µM; in test [35], at least 128 µM.
